In US20050004029A1, “Methods and compositions for treating vascular leak using hepatocyte growth factor” (priority 2001, published 2005):
Entries after “also recorded” stand apart in the source; their conditions may differ.

Experiments:
[1] = system: human alveolar epithelial cells (A549); experiment: Electrical resistance of A549 alveolar epithelial cells on gold microelectrodes; assay type: cell-based; details: HGF 100 ng/mL; sphingosine 1-phosphate 1 μM
Experimental: FIGS. 1A-1D depict HGF-mediated increases in human transendothelial electrical resistance (TER). FIG. 1A: Human pulmonary artery endothelial cells were grown to confluence on gelatinized gold microelectrodes. Two hours prior to TER measurement, growth medium was replaced with serum-free M199. Serial-diluted HGF was added to cells at indicated concentrations and TER monitored for 2.5 hr. […] The result shown is a representative TER tracing of three independent experiments. FIG. 1B: Similar to FIG. 1A, human alveolar epithelial cells (A549) were grown on gold microelectrodes and challenged with vehicle, HGF, (100 ng/mL) or sphingosine 1-phosphate (1 μM). […]
Electrical resistance of EC monolayers was measured using electrical cell impedance sensor system (Applied Biophysics Inc., Troy, N.Y.) as described in Garcia, J. G. N. et al. (2000) J. Appl. […] Cells grown on gold microelectrodes (10^−3 cm^2) in polycarbonate wells act as insulating particles, and the resistance across the monolayers (transendothelial electrical resistance, or TER) is measured in real time. […] The in-phase and out-of-phase voltages between the electrodes were monitored in real time with the lock-in amplifier and converted to scalar measurements of transendothelial impedance, of which resistance was the primary focus. […]

PI-3′ kinase = experiment: Akt phosphorylation by western immunoblotting (PI-3′ kinase activity); assay type: cell-based
Experimental: Endothelial cell monolayers grown to confluence in 12-well plates and challenged with HGF were lysed with 100 μl of 2×SDS sample buffer, and cell lysates were transferred into microcentrifuge tubes and boiled for 5 min. After a brief spin, proteins from 10 μl cell lysates were separated on 12% SDS-PAGE and transferred to nitrocellulose (Schleicher & Schuell, Keene, N.H.) (30V, 18 h). After blocking with PBST (PBS with 0.1% Tween 20) containing 5% non-fat milk for 1 hr, nitrocellulose blots were reacted with primary antibodies diluted in PBST containing 5% BSA for 1 hr, washed with PBST (3×10 min), incubated with peroxidase-conjugated secondary antibodies (goat anti-rabbit IgG, 1:10,000 dilution, Sigma; or goat anti-mouse IgG, 1:10,000 dilution, Bio-Rad Labs, Richmond, Calif.) diluted in PBST with 5% non-fat milk for 1 hr and again washed with PBST (3×10 min). Finally, immunoreactive proteins were detected using ECL. The relative intensities of the protein bands were quantified by scanning densitometry.
To identify key signaling mediators involved in HGF-induced barrier protection, the role of PI-3′-kinase in HGF-stimulated barrier improvement was examined by measuring HGF-dependent phosphorylation of the serine/threonine kinase, Akt, a well-accepted method of defining PI-3′ kinase activity. Cell homogenates were analyzed by western immunoblotting with anti-phospho-Akt[…] antibody. When endothelial monolayers were incubated with HGF (20 ng/ml) for increasing amounts of time (1, 2, 5, 10, 15, 20, 30, 60, or 120 minutes), AKT is rapidly phosphorylated beginning at 2 min with maximal effect plateauing by 5-30 min. When the cells are incubated for 15 minutes with increasing concentrations of HGF (0.5, 1, 2, 5, 10, 20, 50 or 100 ng/ml), activation was […] in response to concentrations as low as 5 ng/ml. […]

HGF: heparin-binding glycoprotein, multifunctional cytokine, ligand of c-Met; purchased from R&D Systems
effect on electrical resistance of epithelial cells [1]: did not alter TER values; also recorded: completely without effect | onset of Akt phosphorylation (PI-3′ kinase; HGF 20 ng/ml): 2 min | time of maximal Akt phosphorylation (plateau) (PI-3′ kinase; HGF 20 ng/ml): 5 to 30 min | lowest concentration giving Akt activation (PI-3′ kinase; HGF 0.5-100 ng/ml, 15 minutes): 5 ng/mL
